In paper PMC3161871, “Heteroarylketones inhibit astroglial interleukin-6 expression via a STAT3/NF-κB signaling pathway” (Journal of Neuroinflammation, 2011):

What was measured:
[1] = tested on: LPS-induced IL-6 expression in C57/B6 mice; assay: LPS-induced acute septic shock model (IL-6 in plasma, hippocampus, cortex); type: in vivo, mouse; settings: 1 mg/kg LPS i.p., HAK-2 in parallel, 2 h
Method: A total number of 20 C57/B6 mice at the age of 5 months with an initial body weight of 22 g to 30 g was analyzed in this study. Mice were randomly assigned to 2 groups of control mice (injection of saline or LPS; n = 6 each) and 1 group of LPS-treated mice co-injected with compound HAK-2 (n = 8). Animals were housed at the Experimental Animal Core Facility of the University of Leipzig. The study was approved by the Regierungspräsidium Leipzig, License # TVV 28/07 on November 14, 2007. To induce septic shock and acute inflammation, 14 mice were injected intraperitoneally (i.p.) with 1 mg LPS (Serotyp 055:B5)/kg body weight. Saline injection i.p. was used as control treatment (n = 6). […] Two hours post treatment mice were sacrificed by CO2 inhalation and tissue samples from hippocampus and cortex as well as plasma were prepared as described later.
Mouse brain samples for qRT-PCR were prepared from 6 - 8 animals per group. After removal of the brain, the tissue samples were flushed shortly with ice cold saline and placed briefly on filter paper. Cortex and hippocampus were prepared, weighted and snap frozen in liquid nitrogen. Samples were stored at -80°C until RNA isolation. […]
Total RNA of cultured cells and homogenized mouse brain tissue samples was isolated using RNA isolation kit "NucleoSpin RNA II" from Macherey and Nagel. RNA quantity was measured by spectrophotometrical quantification (NanoDrop 2000, Peqlab, Erlangen, Germany). […] Quantitative real-time PCR was performed with QuantiFast SYBR Green PCR Master mix (Qiagen, Hilden, Germany) using Rotorgene 3000 system (Corbett, Sydney, Australia). […] Data were analyzed by Rotorgene 3000 Software version 6.0 by comparative quantitation. […]
Figure 6 Suppression of LPS-induced IL-6 expression in vivo by compound HAK-2. […] After 2 hours treatment, samples from hippocampus (A), cortex (B) and plasma (C) were prepared and analyzed by qRT-PCR and ELISA, respectively. […] Statistically significant differences between LPS group and LPS + HAK-2 group were calculated using the unpaired t-test (*p < 0.05; **p < 0.01; ***p < 0.001).

[2] = tested on: OSM-stimulated IL-6 secretion from U343 cells; assay: OSM-induced IL-6 release from U343 glioma cells (IL-6 ELISA of conditioned medium); type: cell-based, human; settings: 20 μM compound, vehicle-transfected U343 cells, OSM 6 h
[3] = tested on: LPS-induced IL-6 release in primary rat astrocytes; assay: LPS-induced IL-6 release in primary rat astrocytes (ELISA); type: cell-based; settings: 1 μg/ml LPS, 20 μM compound, 24 h
Method: According to Löffler, astrocyte-rich primary cell cultures were started with brains of newborn mice and rats and were maintained in Dulbecco's modified Eagle's medium (DMEM) for 33 days at 37°C in a humified atmosphere with 95% air/5% CO2.
(§1) Measurements of IL-6 in conditioned medium and murine plasma samples were done by means of human- or murine-specific IL-6 Cytoset kits (Invitrogen, Darmstadt, Germany) according to manufacturer's protocols.
Figure 5 Suppression of LPS-induced IL-6 release in primary murine astrocytes by selected HAK compounds. […] Astrocytes derived from newborn mice and rats were cultivated for 33 days followed by stimulation with 1 μg/ml LPS and treatment with compounds HAK-2 and HAK-5 (20 μM). After 24 hours conditioned media were analyzed with IL-6 specific ELISA. Data (mean ± SD) were obtained from experiments carried out in quadruplicate and statistical analysis was performed using the paired t test. Amount of IL-6 in LPS-treated control sample was set to 100%. ns, not significant; **p < 0.01; ***p < 0.001.
Primary murine astrocytes stimulated with 1 μg/ml LPS were co-treated with compounds HAK-2 and HAK-5 at a concentration of 20 μM each for 24 h. The observed effect of compounds HAK-2 and HAK-5 on LPS stimulation was similar to that of OSM-induced IL-6 expression in human U343 glioma cells (Figures 5A and 5B). […]

[4] = tested on: OSM-stimulated IL-6 secretion from U343 cells; assay: OSM-induced IL-6 release from U343 glioma cells (IL-6 ELISA of conditioned medium); type: cell-based, human
Method: The human glioma cell line U343 [34] was maintained in DMEM containing 10% fetal bovine serum and 60 μg/ml gentamycin (Invitrogen, Darmstadt, Germany) at 37°C in a 10% CO2 atmosphere.
as §1
Using the characterized cell culture model of OSM-induced IL-6 expression, our in-house compound libraries were screened for potent IL-6 expression inhibitors. Human U343 glioma cells were treated with 100 ng/ml OSM for 24 h. The analysis by IL-6 ELISA identified a set of structurally related compounds as potent inhibitors of IL-6 secretion (Table 1). […] HAKs with proline in position P1 are known from the literature as inhibitors of prolyl endopeptidase (PREP), a proline-specific serine protease.

With `C[C@H](NC(=O)OCc1ccccc1)C(=O)N1CCC[C@H]1C(=O)c1nc2ccccc2s1` [HAK-2, Z-Ala-Pro-BTh] the “Reduction of induced IL-6 mRNA in cortex” value [1] was 53%, the “Reduction of induced IL-6 mRNA in hippocampus” value [1] was 60% and the “Reduction of plasma level of IL-6 protein vs LPS alone” value [1] was 55%. The “IL-6 levels (mRNA and released protein) in the PREP knock-down experiment” value [2] was “reduces IL-6 levels”, the “Reduction of LPS-induced IL-6 expression” value [3] was 50% and the “Remaining IL-6 expression [% of control]” value ([4]; 100 ng/ml OSM, 24 h, IL-6 release of vehicle-treated cells set to 100% (n = 2), mean ± SD) was 18.7 ± 3.87 % of control. For the same compound, the “Effect on OSM-induced IL-6 secretion (in words)” value ([4]; OSM-stimulated) was “significantly reduced”.
